The results in this text go back to PMC8076852 (Frontiers in Molecular Biosciences, 2021).

One series deals with T1, R3C2.
T1 construct: gene speG

The next series relates to T2, R1C2.
T2 construct: gene speG

Another series relates to T3, R1C1.
T3 construct: gene speG

Another series has as its system T4, R1C3.
T4 construct: gene speG

In the next series the test system is NCCCNCCCCNCCCN
Put plainly: purified protein. The note with it: pH 8.0; 37.0 °C.

Take `NCCCNCCCCNCCCN` [spermine]: the Km (usually the concentration of substrate that gives half-maximal velocity) came to 98 ± 8 µM in the series with R3C2, 364 ± 8 µM in the series with R1C2, 2530 ± 710 µM in the series on R1C1 and 244 ± 20 µM in the series with R1C3.
“(Vibrio cholerae O1 biovar El Tor str. N16961)” came in with a K0.5 in the series with NCCCNCCCCNCCCN of 0.222 ± 0.005 mM.
